Source: PubChem BioAssay (NCI)
Where “and” joins values, the source holds several entries; their conditions need not be identical. Equal entries are not always repeated.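 96-well plates; 48 h exposure; 5 concentrations. Endpoints by linear interpolation between flanking doses. Not reached: highest tested concentration assigned. Here, GI50 denotes the concentration required for 50% inhibition of growth. TGI marks complete inhibition of growth.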

Columns and labels:
Assay in all cases: NCI-60 cell line screen, 48 h
OVCAR-3 ovarian = test system: OVCAR-3 ovarian
NCI-H460 lung = test system: NCI-H460 lung
SN12C renal = test system: SN12C renal
KM12 colon = test system: KM12 colon
NCI-H522 lung = test system: NCI-H522 lung
CCRF-CEM leukemia = test system: CCRF-CEM leukemia
MDA-MB-435 = test system: MDA-MB-435
TK-10 renal = test system: TK-10 renal
U251 CNS = test system: U251 CNS
SF-268 CNS = test system: SF-268 CNS
A498 renal = test system: A498 renal
SR leukemia = test system: SR leukemia
UACC-257 melanoma = test system: UACC-257 melanoma
BT-549 breast = test system: BT-549 breast
EKVX NSCLC = test system: EKVX NSCLC
OVCAR-5 ovarian = test system: OVCAR-5 ovarian
A549 NSCLC = test system: A549 NSCLC
MCF7 breast = test system: MCF7 breast
NCI/ADR-RES ovarian = test system: NCI/ADR-RES ovarian
SW-620 colon = test system: SW-620 colon
HCT-15 colon = test system: HCT-15 colon
UO-31 renal = test system: UO-31 renal
HT29 colon = test system: HT29 colon
MALME-3M melanoma = test system: MALME-3M melanoma
OVCAR-4 ovarian = test system: OVCAR-4 ovarian
RXF 393 renal = test system: RXF 393 renal
MDA-MB-231 breast = test system: MDA-MB-231 breast
CAKI-1 renal = test system: CAKI-1 renal
786-0 renal = test system: 786-0 renal
PC-3 prostate = test system: PC-3 prostate
NCI-H226 lung = test system: NCI-H226 lung
OVCAR-8 ovarian = test system: OVCAR-8 ovarian
SF-295 CNS = test system: SF-295 CNS
IGROV1 ovarian = test system: IGROV1 ovarian
SK-MEL-28 melanoma = test system: SK-MEL-28 melanoma
HL-60(TB) leukemia = test system: HL-60(TB) leukemia
SK-OV-3 ovarian = test system: SK-OV-3 ovarian
RPMI-8226 leukemia = test system: RPMI-8226 leukemia
K-562 leukemia = test system: K-562 leukemia
DU-145 prostate = test system: DU-145 prostate
COLO 205 colon = test system: COLO 205 colon
HCC-2998 colon = test system: HCC-2998 colon
SF-539 CNS = test system: SF-539 CNS
M14 melanoma = test system: M14 melanoma
HOP-62 NSCLC = test system: HOP-62 NSCLC
SK-MEL-5 melanoma = test system: SK-MEL-5 melanoma
NCI-H23 lung = test system: NCI-H23 lung
MDA-N = test system: MDA-N
UACC-62 melanoma = test system: UACC-62 melanoma
SNB-19 CNS = test system: SNB-19 CNS
ACHN renal = test system: ACHN renal
HOP-92 NSCLC = test system: HOP-92 NSCLC
LOX IMVI melanoma = test system: LOX IMVI melanoma
MOLT-4 leukemia = test system: MOLT-4 leukemia
T-47D breast = test system: T-47D breast
HS 578T breast = test system: HS 578T breast

With `Cc1cccc(/C=N/NC(=S)N2CCCC2)n1` the GI50 (OVCAR-3 ovarian) was 0.28 µM, the TGI (OVCAR-3 ovarian) was 0.843 µM and 0.0848 µM and the TGI (NCI-H460 lung) was greater than 42 µM. For the same compound, the GI50 (SN12C renal) was 0.719 µM, the GI50 (KM12 colon) was 0.88 µM and 0.322 µM and the TGI (KM12 colon) was greater than 100 µM. It also gave a TGI (NCI-H522 lung) greater than 100 µM, a GI50 (CCRF-CEM leukemia) of 0.0659 µM and a TGI (CCRF-CEM leukemia) of 0.85 µM. The GI50 (MDA-MB-435) was 1.11 µM, the TGI (MDA-MB-435) was greater than 100 µM and the GI50 (TK-10 renal) was 4.82 µM. The TGI (TK-10 renal) was 1.35 µM, the GI50 (U251 CNS) was 0.821 µM and the TGI (U251 CNS) was greater than 100 µM. The GI50 (SF-268 CNS) was 2.29 µM, the GI50 (A498 renal) was 7.22 µM and the TGI (A498 renal) was 5.61 µM. The GI50 (SR leukemia) was 0.15 µM, the TGI (SR leukemia) was 0.876 µM and the TGI (UACC-257 melanoma) was 9.51 µM and 12.1 µM. The GI50 (BT-549 breast) was 3.02 µM, the TGI (BT-549 breast) was greater than 100 µM and the GI50 (EKVX NSCLC) was 3.18 µM. It also gave a GI50 (OVCAR-5 ovarian) of 2.41 µM, a GI50 (A549 NSCLC) of 2.5 µM and a TGI (A549 NSCLC) greater than 100 µM. For the same compound, the GI50 (MCF7 breast) was 0.169 µM, the GI50 (NCI/ADR-RES ovarian) was 0.319 µM and the TGI (NCI/ADR-RES ovarian) was 6.93 µM and 4.89 µM. It also gave a GI50 (SW-620 colon) of 0.352 µM, a TGI (SW-620 colon) greater than 100 µM and a GI50 (HCT-15 colon) of 0.586 µM. For the same compound, the TGI (HCT-15 colon) was greater than 100 µM, the GI50 (UO-31 renal) was 0.748 µM and the TGI (UO-31 renal) was 4.19 µM. For the same compound, the GI50 (HT29 colon) was 4.49 µM, the TGI (HT29 colon) was greater than 100 µM and the GI50 (MALME-3M melanoma) was 1 µM. The TGI (MALME-3M melanoma) was 5.18 µM and 0.783 µM, the TGI (OVCAR-4 ovarian) was 6.95 µM and the GI50 (RXF 393 renal) was 2.09 µM. The GI50 (MDA-MB-231 breast) was 1.14 µM, the GI50 (CAKI-1 renal) was 3.24 µM and the TGI (CAKI-1 renal) was 1.16 µM. For the same compound, the GI50 (786-0 renal) was 2.45 µM, the TGI (786-0 renal) was 2.85 µM and the GI50 (PC-3 prostate) was 0.581 µM. For the same compound, the GI50 (NCI-H226 lung) was 0.266 µM, the TGI (NCI-H226 lung) was 7.73 µM and 0.83 µM and the GI50 (OVCAR-8 ovarian) was 0.624 µM. The TGI (OVCAR-8 ovarian) was greater than 100 µM, the GI50 (SF-295 CNS) was 1.08 µM and the TGI (SF-295 CNS) was 4.24 µM. The GI50 (IGROV1 ovarian) was 0.415 µM, the TGI (IGROV1 ovarian) was greater than 100 µM and the GI50 (SK-MEL-28 melanoma) was 1.42 µM. For the same compound, the TGI (SK-MEL-28 melanoma) was greater than 100 µM, the GI50 (HL-60(TB) leukemia) was 0.236 µM and the TGI (HL-60(TB) leukemia) was 0.872 µM. For the same compound, the TGI (SK-OV-3 ovarian) was greater than 100 µM, the GI50 (RPMI-8226 leukemia) was 0.426 µM and 0.322 µM and the TGI (RPMI-8226 leukemia) was greater than 100 µM. For the same compound, the GI50 (K-562 leukemia) was 0.17 µM, the TGI (K-562 leukemia) was greater than 100 µM and the GI50 (DU-145 prostate) was 0.98 µM. It also gave a GI50 (COLO 205 colon) of 0.193 µM, a GI50 (HCC-2998 colon) of 0.102 µM and a TGI (HCC-2998 colon) of 0.92 µM. The GI50 (SF-539 CNS) was 0.753 µM, the GI50 (M14 melanoma) was 0.392 µM and the TGI (M14 melanoma) was 2.64 µM and 0.485 µM. For the same compound, the GI50 (HOP-62 NSCLC) was 2.17 µM, the TGI (HOP-62 NSCLC) was 0.942 µM and the TGI (SK-MEL-5 melanoma) was 0.823 µM. It also gave a GI50 (NCI-H23 lung) of 0.401 µM, a TGI (NCI-H23 lung) of 13.4 µM and a GI50 (MDA-N) of 1.91 µM. The TGI (MDA-N) was greater than 26.1 µM, the GI50 (UACC-62 melanoma) was 0.587 µM and the TGI (UACC-62 melanoma) was 2.8 µM and 1 µM. For the same compound, the GI50 (SNB-19 CNS) was 1.4 µM, the TGI (SNB-19 CNS) was greater than 34.6 µM and the GI50 (ACHN renal) was 1.44 µM. For the same compound, the GI50 (HOP-92 NSCLC) was 0.536 µM, the TGI (LOX IMVI melanoma) was greater than 41.4 µM and the TGI (MOLT-4 leukemia) was greater than 100 µM. For the same compound, the GI50 (T-47D breast) was 0.267 µM, the TGI (T-47D breast) was 7.68 µM and the TGI (HS 578T breast) was greater than 100 µM.
